Read-outs that look alike come from different tables or passages of the source.
Legend:
[1] = Solubility of neomycin sulfate in water-acetone in the presence of CTAB; assay type: physicochemical
Description: In this section, the method for the synthesis of neomycin nanoparticles is explained in detail. First, an exact amount of neomycin powder (purity ≥ 95%) was weighed using a digital analytical balance (accuracy: […]) based on the desired equilibrium concentration. The weighed neomycin was then added to 10 g of double-distilled water (25 °C). To ensure complete dissolution, the mixture was homogenized using a magnetic stirrer at controlled speeds of 300, 350, 400, and 450 rpm for 20 minutes. This range of stirring speeds was selected to investigate the effect of shear force on solution homogeneity. After confirming the homogeneity of the neomycin solution, a predetermined amount of CTAB surfactant with a concentration established from prior studies was added to the beaker. To achieve optimal mixing, the stirring system was activated at a constant speed between 300 and 450 rpm, and the mixing process continued until equilibrium was reached. The solution temperature was continuously monitored using a calibrated digital thermometer (±0.1 °C). A turbidity sensor was installed 2 cm from the crystallizer wall to measure changes in turbidity. Pure acetone (HPLC grade) was added dropwise (0.02 mL per drop) at 5-minute intervals. The first signs of physical change (e.g., localized cloudiness) were recorded as the initial saturation point. Acetone addition continued until stable turbidity (supersaturation) was achieved under isothermal conditions (25 °C). The induction time (the interval between initial saturation and supersaturation), as clearly depicted in Fig. 1, Section C (the induction time segment of steps 1 to 4), was measure using a synchronized turbidimeter and reaction timer data. To ensure reproducibility, the entire process was repeated in four independent trials under controlled conditions (constant temperature, humidity, and lighting).
This study investigated the solubility enhancement of neomycin in the presence of CTAB stabilizer through controlled dynamic shock application. In contrast to the reference study,[29] which utilized PVP at a mixing speed of 300 rpm, the present experimental design involved the addition of 0.3 g neomycin to a 10 g solvent–antisolvent mixture under 350 rpm agitation, incorporating intermittent dynamic shocks consisting of 3-second pulses at 380 rpm. […] This significant improvement stems from synergistic effects between: (1) CTAB's molecular interactions (ionic complexation with neomycin molecules, surface tension reduction, and stable colloidal environment through spherical micelle formation) and (2) dynamic shock-induced phenomena (enhanced antisolvent penetration and uniform stabilizer distribution).[73] […] The findings underscore the critical importance of concurrent optimization of physicochemical parameters in antisolvent crystallization processes for pharmaceutical nanoparticles.[74]
(§1) This study comprehensively investigated the influence of CTAB surfactant on neomycin crystallization. […] The supersaturation (S), as the primary driving force, directly affects the induction time, critical radius, growth rate, solubility, nanoparticle size, and nucleation mechanism.[33] CTAB operates through selective adsorption on crystalline surfaces, substantially influencing the nucleation pathway.[75,76] […] Quantitative data for these parameters are presented in Table 2, with the growth rate (intensity %) and nanoparticle size data being experimentally derived from DLS analysis.

[2] = Critical nucleus radius calculated from classical nucleation theory (eqn S16); assay type: physicochemical; conditions: CTAB 0.6 g kg^−1, 25 °C
Excerpt: as §1
As previously explored in relation to supersaturation, growth rate, and nanoparticle size (Fig. 16), the experimental results shown in Fig. 17 further illustrate the critical radius, growth kinetics, and nanoparticle size across varying supersaturation levels.[86] Based on data obtained from DLS analysis and critical radius calculations (eqn S16), it is observed that decreasing supersaturation leads to a significant increase in crystal growth rates, resulting in the formation of larger nanoparticles.[14–16,87] […] This phenomenon follows fundamental crystallization kinetics principles where, at high supersaturation levels, the elevated concentration of solute species leads to the formation of a greater number of primary nuclei.[89] Simultaneously, the distribution of solute molecules among these numerous nuclei results in decreased growth rates for crystals, ultimately producing smaller nanoparticles with a […] size distribution.[86] The role of the CTAB stabilizer in this system is particularly crucial. Through surface adsorption mechanisms, CTAB not only prevents nanoparticle aggregation but also precisely modulates growth kinetics, enabling better control over final particle dimensions.[90] These synergistic effects contribute to the formation of colloidally stable nanoparticles with uniform size distributions. An important observation is the direct correlation between nucleation duration and critical particle size, where extended nucleation times cause the formation of smaller particles.[91] Furthermore, dynamic parameters such as agitation rate and controlled shock pulses serve as effective tools for fine-tuning nanoparticle characteristics.[92]

[3] = design: method as in PMID 40028493; conditions: PVP as stabilizer, cited from earlier work

SMILES: NC[C@@H]1O[C@H](O[C@H]2[C@@H](O)[C@H](O[C@@H]3[C@@H](O)[C@H](N)C[C@H](N)[C@H]3O[C@H]3O[C@H](CN)[C@@H](O)[C@H](O)[C@H]3N)O[C@@H]2CO)[C@H](N)[C@@H](O)[C@@H]1O.O=S(=O)(O)O [neomycin sulfate]
- Solubility ([1]; 300 rpm, initial neomycin 20 g kg^−1, S 1.18, CTAB 0.6 g kg^−1, 25 °C): 17 g/kg
- Solubility ([1]; 300 rpm, initial neomycin 20 g kg^−1, S 1.21, CTAB 0.6 g kg^−1, 25 °C): 16 g/kg
- Solubility ([1]; 300 rpm, initial neomycin 20 g kg^−1, S 1.33, CTAB 0.6 g kg^−1, 25 °C): 15 g/kg
- Solubility ([1]; 300 rpm, initial neomycin 20 g kg^−1, S 1.45, CTAB 0.6 g kg^−1, 25 °C): 13.8 g/kg
- Solubility ([1]; 300 rpm, initial neomycin 20 g kg^−1, S 1.66, CTAB 0.6 g kg^−1, 25 °C): 12 g/kg
- Solubility ([1]; 350 rpm, initial neomycin 30 g kg^−1, S 1.2, CTAB 0.6 g kg^−1, 25 °C): 25 g/kg
- Solubility ([1]; 350 rpm, initial neomycin 30 g kg^−1, S 1.25, CTAB 0.6 g kg^−1, 25 °C): 24 g/kg
- Solubility ([1]; 350 rpm, initial neomycin 30 g kg^−1, S 1.28, CTAB 0.6 g kg^−1, 25 °C): 23.5 g/kg
- Solubility ([1]; 350 rpm, initial neomycin 30 g kg^−1, S 1.43, CTAB 0.6 g kg^−1, 25 °C): 21.1 g/kg
- Solubility ([1]; 400 rpm, initial neomycin 40 g kg^−1, S 1.29, CTAB 0.6 g kg^−1, 25 °C): 31 g/kg
- Solubility ([1]; 400 rpm, initial neomycin 40 g kg^−1, S 1.379, CTAB 0.6 g kg^−1, 25 °C): 29 g/kg
- Solubility ([1]; 400 rpm, initial neomycin 40 g kg^−1, S 1.48, CTAB 0.6 g kg^−1, 25 °C): 27 g/kg
- Solubility ([1]; 400 rpm, initial neomycin 40 g kg^−1, S 1.66, CTAB 0.6 g kg^−1, 25 °C): 24 g/kg
- Solubility ([1]; 400 rpm, initial neomycin 40 g kg^−1, S 1.9, CTAB 0.6 g kg^−1, 25 °C): 21 g/kg
- Solubility ([1]; 450 rpm, initial neomycin 50 g kg^−1, S 1.351, CTAB 0.6 g kg^−1, 25 °C): 37 g/kg
- Solubility ([1]; 450 rpm, initial neomycin 50 g kg^−1, S 1.47, CTAB 0.6 g kg^−1, 25 °C): 34 g/kg
- Solubility ([1]; 450 rpm, initial neomycin 50 g kg^−1, S 1.666, CTAB 0.6 g kg^−1, 25 °C): 30 g/kg
- Solubility ([1]; 450 rpm, initial neomycin 50 g kg^−1, S 1.785, CTAB 0.6 g kg^−1, 25 °C): 28 g/kg
- Critical radius ([2]; 300 rpm, initial neomycin 20 g kg^−1, S 1.18): 1.689 nm
- Critical radius ([2]; 300 rpm, initial neomycin 20 g kg^−1, S 1.21): 1.467 nm
- Critical radius ([2]; 300 rpm, initial neomycin 20 g kg^−1, S 1.33): 0.981 nm
- Critical radius ([2]; 300 rpm, initial neomycin 20 g kg^−1, S 1.45): 0.753 nm
- Critical radius ([2]; 300 rpm, initial neomycin 20 g kg^−1, S 1.66): 0.552 nm
- Critical radius ([2]; 350 rpm, initial neomycin 30 g kg^−1, S 1.2): 1.534 nm
- Critical radius ([2]; 350 rpm, initial neomycin 30 g kg^−1, S 1.25): 1.254 nm
- Critical radius ([2]; 350 rpm, initial neomycin 30 g kg^−1, S 1.28): 1.133 nm
- Critical radius ([2]; 350 rpm, initial neomycin 30 g kg^−1, S 1.43): 0.782 nm
- Critical radius ([2]; 350 rpm, initial neomycin 30 g kg^−1, S 1.67): 0.545 nm
- Critical radius ([2]; 400 rpm, initial neomycin 40 g kg^−1, S 1.29): 1.099 nm
- Critical radius ([2]; 400 rpm, initial neomycin 40 g kg^−1, S 1.379): 0.957 nm
- Critical radius ([2]; 400 rpm, initial neomycin 40 g kg^−1, S 1.48): 0.714 nm
- Critical radius ([2]; 400 rpm, initial neomycin 40 g kg^−1, S 1.66): 0.552 nm
- Critical radius ([2]; 400 rpm, initial neomycin 40 g kg^−1, S 1.9): 0.436 nm
- Critical radius ([2]; 450 rpm, initial neomycin 50 g kg^−1, S 1.351): 0.932 nm
- Critical radius ([2]; 450 rpm, initial neomycin 50 g kg^−1, S 1.408): 0.817 nm
- Critical radius ([2]; 450 rpm, initial neomycin 50 g kg^−1, S 1.47): 0.726 nm
- Critical radius ([2]; 450 rpm, initial neomycin 50 g kg^−1, S 1.666): 0.548 nm
- Critical radius ([2]; 450 rpm, initial neomycin 50 g kg^−1, S 1.785): 0.483 nm
- Interfacial energy, Motahari et al. ([3]; initial neomycin 20 g kg solvent^−1): 7.68 mJ m^−2
- Interfacial energy, Motahari et al. ([3]; initial neomycin 30 g kg solvent^−1): 8.056 mJ m^−2

From paper PMC12679610, “Impact of supersaturation on growth, critical radius, and size in neomycin nanoparticle crystallization using anti-solvent and CTAB” (RSC Advances, 2025)
